Structures are written as SMILES.

For test [1], the system named is NAD(P)H:quinine oxidoreductase (NQO1). To be noted: oral administration, mammary epithelium; cited from earlier work.
Test [2] concerns heme oxygenase-1 (HO-1). To be noted: oral administration, mammary epithelium; cited from earlier work.
Test [3] concerns HepG2 cells. Nature of the test: Glutathione levels in HepG2 cells (o-phthalaldehyde fluorescence). The test is classed as cell-based, human. The procedure: The following study was conducted to determine the effect of the combination of sulforaphane and silibinin on glutathione levels. Glutathione plays an important role in the body, as it can serve as an antioxidant, detoxifier, and immunity enhancer. Decreased levels of glutathione can cause a patient to be susceptible to oxidative stress, illness, and cancer. Therefore, an increase in glutathione levels is a beneficial effect.
In the study, the human liver cancer cell line, HepG2 cells were treated with DMSO (vehicle control), sulforaphane (SFN), silibinin (Silib), or the combination of sulforaphane and silibinin, for 24 hours. Cell lysates were collected and glutathione levels were measured using o-phthalaldehyde (OPT) as a fluorescent reagent. FIG. 5 and FIG. 6 show the results of the study.
In Part 1 of the study, the effect of 0.5 μM SFN was compared to various concentrations of silibinin and to the combination of 0.5 μM SFN and silibinin at various concentrations. […] An increase in glutathione levels is a beneficial effect. The results are depicted in FIG. 5.
In Part 2 of the study, the effect of 2 μM SFN was compared to various concentrations of silibinin and to the combination of 2 μM SFN and silibinin at various concentrations. […] An increase in glutathione levels is a beneficial effect to detoxify cells. The results are depicted in FIG. 6.

The subject of test [4] is myrosinase. Nature of the test: Conversion of glucoraphanin to sulforaphane in simulated intestinal fluid (Example 5). The test is classed as biochemical, broccoli. As to conditions: 38° C., 0.25 to 1.00 mmol/Liter ascorbic acid, FIG. 4. The protocol: Conversion of Glucoraphanin to Sulforaphane in the Presence of Simulated Intestinal Fluid. Simulated Intestinal Fluid (SW) powder, a commercially supplied concentrate closely approximating the human intestinal content in terms of composition, pH and ionic strength, was used. The experiment utilized a USP Dissolution Apparatus 2 (paddles), where into six dissolution vessels 500 mL of Simulated Intestinal Fluid was dispensed, along with 150 mg of freeze-dried broccoli sprout powder as a source of myrosinase. […] Aliquots were withdrawn every 15 minutes, and assayed for sulforaphane.

For `C[S+]([O-])CCCC/C(=N\OS(=O)(=O)O)S[C@@H]1O[C@H](CO)[C@@H](O)[C@H](O)[C@H]1O` (stereo partly drawn) [GR, 1-S-[(1E)-5-(methylsulfinyl)-N-(sulfonatooxy)pentanimidoyl]-1-thio-β-D-glucopyranose], the “Increase in NQO1 enzymatic activity” value in test [1] is reported as 3 fold. The “Elevated immunostaining of HO-1 enzyme” value in test [2] was 4 fold.
As to `C[S+]([O-])CCCCN=C=S` (centres unmarked) [sulforaphane, 1-isothiocyanato-4-methylsulfinylbutane], the “Glutathione levels compared to DMSO (vehicle) control” value in test [3] (Part 1, 24 hours, 0.5 μM SFN, 100, 200, 300 μM Silib, FIG. 5) is “remained the same”. The “Glutathione levels compared to the control” value in test [3] (Part 2, 24 hours, 2 μM SFN, 100, 300 μM Silib, FIG. 6) is reported as “remained the same”.
For the compound `O=C1O[C@H]([C@@H](O)CO)C(O)=C1O` [ascorbic acid], the “Yield of sulforaphane versus ascorbic acid concentration” value in test [4] is “direct correlation between larger yield of sulforaphane and higher concentrations of ascorbic acid”.

The values are drawn from patent US12485161B2, “Compositions comprising sulforaphane or a sulforaphane precursor and a milk thistle extract or powder” (Nutramax Laboratories, Inc., priority 2012, dated 2025).
